# Measured values reported in patent publication US8957013B2 (priority 2007, dated 2015).
# Assay type: binding
sequence,measurement,value
HPNFSKYILHQR,selectivity for DNT over TNT target,selective for the DNT target
